Literature values, collected in patent publication US6485765B1, “Lactational performance of dairy cattle” (Church & Dwight Co., Inc., priority 2000, dated 2002).

Tested on: heat stressed dairy cows
Details: per every 1% increase in K, potassium carbonate as source of dietary K

Structure (SMILES): O=C([O-])[O-].[K+].[K+] [potassium carbonate]
- increase of fat-corrected milk: 8.9 lbs/day
